The results in this text go back to PubChem BioAssay AID180 (DTP/NCI, 2004).

The test system of this assay is BDF1 mice, Adenocarcinoma 755 s.c., tumor weight T/C. The experiment in a line: NCI In Vivo Anticancer Drug Screen. Data for tumor model Adenocarcinoma 755 (subcutaneous) in B6D2F1 (BDF1) mice. The conditions noted are these: endpoint: mean tumor weight, higher = larger tumour. In a few lines: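 Compound activity was tested in mice carrying transplanted tumors. Survival or tumor size was measured, and each value is the treated-group measurement divided by that of the vehicle-treated control group (T/C).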

Where [1] appears, read: dose: 20.0 mg/kg/injection, schedule: Q01DX011 (ip), vehicle: saline.
Where [2] appears, read: dose: 25.0 mg/kg/injection, schedule: Q01DX011 (ip), vehicle: methylcellulose (MC).
Where [3] appears, read: dose: 6.25 mg/kg/injection, schedule: Q01DX011 (ip), vehicle: methylcellulose (MC).
Where [4] appears, read: dose: 12.5 mg/kg/injection, schedule: Q01DX011 (ip), vehicle: methylcellulose (MC).

Each structure is given as a SMILES string. Several values for one entry are separate records, joined by “and”; a condition that tells them apart may be missing. Equal values may be shown once.

For the compound `CC1([CH2][Hg][I])OCCOC1[CH2][Hg][I]` (configuration not stated), the T/C was 57 % of control (dose: 2.5 mg/kg/injection, schedule: Q01DX011 (ip), vehicle: saline); 71 % of control (dose: 5.0 mg/kg/injection, schedule: Q01DX011 (ip), vehicle: saline); 57 % of control (dose: 10.0 mg/kg/injection, schedule: Q01DX011 (ip), vehicle: saline); 36 % of control (dose: 10.9 mg/kg/injection, schedule: Q01DX011 (ip), vehicle: saline); 87 % of control (dose: 11.0 mg/kg/injection, schedule: Q01DX011 (ip), vehicle: carboxymethylcellulose (CMC)); 7 % of control under setting [1].

For `CC(C)CSc1ncnc2nc[nH]c12`, the T/C is 45 % of control (dose: 6.0 mg/kg/injection, schedule: Q01DX011 (ip), vehicle: other); 19 % of control (dose: 11.0 mg/kg/injection, schedule: Q01DX011 (ip), vehicle: other); 5 % of control (dose: 22.0 mg/kg/injection, schedule: Q01DX011 (ip), vehicle: other); 1 % of control (dose: 31.0 mg/kg/injection, schedule: Q01DX011 (ip), vehicle: other); 7 % of control (dose: 45.0 mg/kg/injection, schedule: Q01DX011 (ip), vehicle: other).

On to `CC1CCN(/N=N/c2nc3c([nH]2)c(=O)n(C)c(=O)n3C)CC1`, for which the T/C under setting [2] was 41 % of control and the T/C (dose: 75.0 mg/kg/injection, schedule: Q01DX011 (ip), vehicle: methylcellulose (MC)) was 57 % of control.

In the case of `CC(=O)OCC(=O)C1(O)CCC2C3CCC4=CC(=O)CCC4(C)C34OC4CC21C` (configuration not stated), the T/C (dose: 25.0 mg/kg/injection, schedule: Q01DX011 (sc), vehicle: steriod suspending solution) is 87 % of control; the T/C (dose: 200.0 mg/kg/injection, schedule: Q01DX011 (sc), vehicle: steriod suspending solution) is 44 % of control; the T/C (dose: 450.0 mg/kg/injection, schedule: Q01DX011 (sc), vehicle: steriod suspending solution) was 17 % of control.

As to `Nc1nc(Cl)cc(Nc2ccccc2Cl)n1`, the T/C is, setting by setting: (dose: 15.0 mg/kg/injection, schedule: Q01DX011 (ip), vehicle: methylcellulose (MC)) 110 % of control; (dose: 31.0 mg/kg/injection, schedule: Q01DX011 (ip), vehicle: methylcellulose (MC)) 49 % of control; (dose: 62.0 mg/kg/injection, schedule: Q01DX011 (ip), vehicle: methylcellulose (MC)) 89 % of control; (dose: 125.0 mg/kg/injection, schedule: Q01DX011 (ip), vehicle: methylcellulose (MC)) 89 % of control; (dose: 250.0 mg/kg/injection, schedule: Q01DX011 (ip), vehicle: methylcellulose (MC)) 75 % of control.

For the compound `O=c1[nH]cc(F)c(=O)[nH]1`, the T/C by setting is: (dose: 3.38 mg/kg/injection, schedule: Q01DX011 (ip), vehicle: carboxymethylcellulose (CMC)) 106 % of control; (dose: 3.87 mg/kg/injection, schedule: Q01DX011 (ip), vehicle: carboxymethylcellulose (CMC)) 61 % of control; (dose: 4.13 mg/kg/injection, schedule: Q01DX011 (ip), vehicle: carboxymethylcellulose (CMC)) 48 % of control and 71 % of control; under setting [3], 91 % of control; (dose: 6.75 mg/kg/injection, schedule: Q01DX011 (ip), vehicle: carboxymethylcellulose (CMC)) 75 % of control; (dose: 7.75 mg/kg/injection, schedule: Q01DX011 (ip), vehicle: carboxymethylcellulose (CMC)) 103 % of control and 85 % of control. The T/C is, setting by setting: (dose: 8.27 mg/kg/injection, schedule: Q01DX011 (ip), vehicle: carboxymethylcellulose (CMC)) 151 % of control and 159 % of control; (dose: 10.8 mg/kg/injection, schedule: Q01DX011 (ip), vehicle: carboxymethylcellulose (CMC)) 156 % of control; under setting [4], 44 % of control; (dose: 13.24 mg/kg/injection, schedule: Q01DX011 (ip), vehicle: carboxymethylcellulose (CMC)) 76 % of control; (dose: 16.55 mg/kg/injection, schedule: Q01DX011 (ip), vehicle: carboxymethylcellulose (CMC)) 100 % of control and 224 % of control and 75 % of control; (dose: 18.0 mg/kg/injection, schedule: Q01DX011 (ip), vehicle: carboxymethylcellulose (CMC)) 108 % of control. The T/C is, setting by setting: under setting [1], 15 % of control; (dose: 22.06 mg/kg/injection, schedule: Q01DX011 (ip), vehicle: carboxymethylcellulose (CMC)) 59 % of control; under setting [2], 13 % of control; (dose: 25.0 mg/kg/injection, schedule: Q01DX011 (ip), vehicle: saline) 34 % of control; (dose: 27.0 mg/kg/injection, schedule: Q01DX011 (ip), vehicle: carboxymethylcellulose (CMC)) 18 % of control and 27 % of control; (dose: 30.0 mg/kg/injection, schedule: Q01DX011 (ip), vehicle: saline) 11 % of control. Besides, the T/C (dose: 33.1 mg/kg/injection, schedule: Q01DX011 (ip), vehicle: carboxymethylcellulose (CMC)) was 27 % of control.

Regarding `C=C(C)CSc1ncnc2nc[nH]c12`, the T/C reads like this: (dose: 1.5 mg/kg/injection, schedule: Q01DX011 (ip), vehicle: other) 82 % of control; (dose: 3.0 mg/kg/injection, schedule: Q01DX011 (ip), vehicle: other) 78 % of control; (dose: 7.0 mg/kg/injection, schedule: Q01DX011 (ip), vehicle: other) 22 % of control; (dose: 15.0 mg/kg/injection, schedule: Q01DX011 (ip), vehicle: other) 5 % of control; (dose: 30.0 mg/kg/injection, schedule: Q01DX011 (ip), vehicle: other) 5 % of control and 14 % of control; (dose: 60.0 mg/kg/injection, schedule: Q01DX011 (ip), vehicle: other) 2 % of control. Further, the T/C (dose: 120.0 mg/kg/injection, schedule: Q01DX011 (ip), vehicle: other) is 2 % of control.

Take `C[C@]12C=CC(=O)C=C1CC[C@@H]1[C@@H]2CC[C@]2(C)OC(=O)CC[C@@H]12`: the T/C (dose: 125.0 mg/kg/injection, schedule: Q01DX011 (sc), vehicle: steriod suspending solution) is 80 % of control; the T/C (dose: 250.0 mg/kg/injection, schedule: Q01DX011 (sc), vehicle: steriod suspending solution) was 77 % of control; the T/C (dose: 500.0 mg/kg/injection, schedule: Q01DX011 (sc), vehicle: steriod suspending solution) was 109 % of control; the T/C (dose: 1000.0 mg/kg/injection, schedule: Q01DX011 (sc), vehicle: steriod suspending solution) was 75 % of control.

In the case of `C[C@]12C=CC(=O)C=C1CC[C@@H]1[C@@H]2[C@@H](O)C[C@@]2(C)[C@H]1CC[C@]2(O)C(=O)CF`, the T/C runs as follows: (dose: 8.0 mg/kg/injection, schedule: Q01DX011 (sc), vehicle: steriod suspending solution) 64 % of control; (dose: 16.0 mg/kg/injection, schedule: Q01DX011 (sc), vehicle: steriod suspending solution) 22 % of control; (dose: 132.0 mg/kg/injection, schedule: Q01DX011 (sc), vehicle: steriod suspending solution) 30 % of control; (dose: 264.0 mg/kg/injection, schedule: Q01DX011 (sc), vehicle: steriod suspending solution) 5 % of control.

Take `O=S(=O)(F)c1ncnc2nc[nH]c12`: the T/C runs as follows: (dose: 3.13 mg/kg/injection, schedule: Q01DX011 (ip), vehicle: methylcellulose (MC)) 75 % of control; under setting [3], 113 % of control; under setting [4], 72 % of control.

Consider `O=C(NCCCCCCCCCCNC(=O)N1CC1)N1CC1`, for which the T/C reads like this: (dose: 0.5 mg/kg/injection, schedule: Q01DX011 (ip), vehicle: carboxymethylcellulose (CMC)) 57 % of control and 66 % of control; (dose: 1.0 mg/kg/injection, schedule: Q01DX011 (ip), vehicle: carboxymethylcellulose (CMC)) 2 % of control and 20 % of control.

With `C1OC1C1CO1` (configuration not stated), the T/C reads like this: (dose: 3.05 mg/kg/injection, schedule: Q01DX011 (ip), vehicle: carboxymethylcellulose (CMC)) 83 % of control; (dose: 3.5 mg/kg/injection, schedule: Q01DX011 (ip), vehicle: carboxymethylcellulose (CMC)) 77 % of control; (dose: 7.0 mg/kg/injection, schedule: Q01DX011 (ip), vehicle: carboxymethylcellulose (CMC)) 72 % of control; (dose: 8.13 mg/kg/injection, schedule: Q01DX011 (ip), vehicle: carboxymethylcellulose (CMC)) 62 % of control and 68 % of control; (dose: 14.0 mg/kg/injection, schedule: Q01DX011 (ip), vehicle: carboxymethylcellulose (CMC)) 110 % of control; (dose: 24.4 mg/kg/injection, schedule: Q01DX011 (ip), vehicle: carboxymethylcellulose (CMC)) 24 % of control and 33 % of control and 45 % of control. For the same compound, the T/C (dose: 28.0 mg/kg/injection, schedule: Q01DX011 (ip), vehicle: carboxymethylcellulose (CMC)) was 61 % of control.
